Reference: patent US6352703B1, “Compositions and methods for detecting and killing termites” (Board of Supervisors of Louisiana State University and …, priority 1997, dated 2002)

Key:
[1] = tested on: ants; test: Killing of ants; conditions: in vivo
[2] = tested on: Mucor spp. fungus; test: Antifungal filter paper disk test, trial 3 (cornmeal agar, sealed plates, increased rates); format: cell-based
Procedure: A second trial was conducted with filter papers treated with naphthalene, BHT, or 2,6-di-t-butyl-4-methyl-phenol (“DBP”). A fungal suspension was prepared as in the first trial. Spore concentrations were determined with a counting chamber (Petroff-Hauser, Hauser Scientific Partnership, Horsham, Pa.). Concentrations were adjusted to approximately 10^7 spores/mL. In the first trial fungus grew on SDA quickly, forming a thick mat that soon filled the entire petri dish. […] A thin layer of the spore suspension was spread over the surface of each of 24 cornmeal agar plates using a turntable and bent glass rod, as previously described.
Filter paper disks were treated with naphthalene, BHT, or DBP at rates of 2 μg, 20 μg, or 200 μg, prepared as in the first trial. On each plate were placed four filter paper disks spaced equidistant from one another (one disk containing each of the three application rates of one of the test compounds, and one disk containing only the hexane control). Each plate was then covered and sealed with parafilm to reduce the release of volatile compounds. The concentration of naphthalene in the headspace was 0.04 μg/cm^3; except in trial 3 below, in which the concentration was 34.6 μg/cm^3, about 700 times the concentration we have observed in termite nest materials. […] The experiment was then repeated, increasing the rates of naphthalene, BHT, and DBP to 200 μg, 600 μg, and 1000 μg (trial 3).
(§1) Fungal growth on each filter paper disk was recorded by making tracings of the disks, inking in areas with visible fungal growth. The fraction of each disk covered by fungus was measured by making photocopy enlargements of these drawings, cutting out the enlarged disks, weighing the entire circle, cutting out the inked areas of the circle (corresponding to fungal growth), and weighing the latter. The fraction of each circle covered with fungus was then calculated as the ratio of these weights. (The weight of the photocopy toner was negligible.)
(§2) Coverage of filter paper disks was analyzed by the ANOVA procedure (SAS Institute, Version 6.11, Cary, N.C.). Tukey's Studentized Range (HSD) Test was used for comparison of mean separations (α=0.05).

[3] = tested on: Mucor spp. fungus; test: Antifungal filter paper disk test, trial 1 (Sabouraud dextrose agar); format: cell-based
Procedure: Mucor was isolated from a Formosan termite nest in our laboratory, a nest originally collected from a cottonwood tree in New Orleans, La. The fungus comprised a white mat that covered large areas of the nest that had been exposed to air and water. Fungus was scraped from the nest and suspended in distilled, de-ionized water with a Pasteur pipette. This suspension was streaked on Sabouraud dextrose agar (“SDA”) (Difco Laboratories, Detroit, Mich.) in 100×15 mm plates containing 20 mL SDA. Pure cultures were obtained from individual colonies on these plates as needed. Cultures were maintained on SDA plates in a 27° C. incubator without light until used.
Filter paper disks (Whatman #1, 1.5 cm) were treated with naphthalene, butylated hydroxytoluene (BHT), dioctyl phthalate, or adipic dioctyl ester, at rates of 2 μg, 20 μg, or 200 μg, dissolved in 100 μL hexane. Controls were treated with hexane alone. For each treatment, just prior to testing for antifungal properties, 1 mL of the hexane solution and ten filter paper disks were placed in a vial, and N2 was used to evaporate the hexane.
A suspension was prepared by scraping Mucor conidia (spores) from the culture plates, and mixing into distilled, deionized water with a Pasteur pipette. A thin layer of this suspension was spread over the surface of each of 130 SDA plates by placing each plate onto an inoculation turntable (Fisher Scientific, Hampton, N.H.), pipetting 0.2 mL of the suspension into the center of the plate, spinning the turntable, and spreading the suspension onto the agar with a bent glass rod. The plates were allowed to dry for two hours. A treated filter paper disk was then placed in the center of each plate (10 plates/treatment), and the plates were incubated at 27° C. The extent to which each filter paper disk was covered by fungus was determined by visual inspection (by the method described in greater detail below) after four, five, and six days.
as §1, §2

[4] = tested on: Mucor spp. fungus; test: Antifungal filter paper disk test, trial 2 (cornmeal agar, sealed plates); format: cell-based
Procedure: A second trial was conducted with filter papers treated with naphthalene, BHT, or 2,6-di-t-butyl-4-methyl-phenol (“DBP”). A fungal suspension was prepared as in the first trial. Spore concentrations were determined with a counting chamber (Petroff-Hauser, Hauser Scientific Partnership, Horsham, Pa.). Concentrations were adjusted to approximately 10^7 spores/mL. In the first trial fungus grew on SDA quickly, forming a thick mat that soon filled the entire petri dish. Therefore, in the second trial cornmeal agar (CMA, Difco Laboratories, Detroit, Mich.) was used to slow the growth of the fungus during the six-day observation period. A thin layer of the spore suspension was spread over the surface of each of 24 cornmeal agar plates using a turntable and bent glass rod, as previously described.
Filter paper disks were treated with naphthalene, BHT, or DBP at rates of 2 μg, 20 μg, or 200 μg, prepared as in the first trial. On each plate were placed four filter paper disks spaced equidistant from one another (one disk containing each of the three application rates of one of the test compounds, and one disk containing only the hexane control). Each plate was then covered and sealed with parafilm to reduce the release of volatile compounds. The concentration of naphthalene in the headspace was 0.04 μg/cm^3; except in trial 3 below, in which the concentration was 34.6 μg/cm^3, about 700 times the concentration we have observed in termite nest materials. The growth of fungus on and around each filter paper disk was recorded three, four, and five days after treatment. The experiment was then repeated, increasing the rates of naphthalene, BHT, and DBP to 200 μg, 600 μg, and 1000 μg (trial 3).
as §1, §2

[5] = trial 3, 0 μg disk (hexane only) on the same sealed plate as the compound's treated disks
[6] = trial 2, 0 μg disk (hexane only) on the same sealed plate as the compound's treated disks

**Q.** Cc1cc(C(C)(C)C)c(O)c(C(C)(C)C)c1 [BHT, butylated hydroxytoluene] was tested. Which “Effectiveness at killing ants compared with naphthalene” value [1] did it give?
**A.** even more effective than naphthalene at killing ants

**Q.** What about the “Fraction Covered, Day 3 (mean percentage of filter paper disk surface covered by fungus)” value [2, 5] of the same compound?
**A.** 59%

**Q.** What about the “Fraction Covered, Day 4 (mean percentage of filter paper disk surface covered by fungus)” value [2, 5] of the same compound?
**A.** 100%

**Q.** What about the “Fraction Covered, Day 5 (mean percentage of filter paper disk surface covered by fungus)” value [2, 5] of the same compound?
**A.** 100%

**Q.** And the “Fungal coverage of treated disks” value ([2]; trial 3, fourth day)?
**A.** ~100%

**Q.** What about the “Fraction Covered, Day 3 (mean percentage of filter paper disk surface covered by fungus)” value ([2]; trial 3, rate 200 μg per disk) of the same compound?
**A.** 30%

**Q.** What about the “Fraction Covered, Day 4 (mean percentage of filter paper disk surface covered by fungus)” value ([2]; trial 3, rate 200 μg per disk) of the same compound?
**A.** 96%

**Q.** What about the “Fraction Covered, Day 5 (mean percentage of filter paper disk surface covered by fungus)” value ([2]; trial 3, rate 200 μg per disk) of the same compound?
**A.** 95%

**Q.** What about the “Fraction Covered, Day 3 (mean percentage of filter paper disk surface covered by fungus)” value ([2]; trial 3, rate 600 μg per disk) of the same compound?
**A.** 53%

**Q.** And the “Fraction Covered, Day 4 (mean percentage of filter paper disk surface covered by fungus)” value ([2]; trial 3, rate 600 μg per disk)?
**A.** 97%

**Q.** And the “Fraction Covered, Day 5 (mean percentage of filter paper disk surface covered by fungus)” value ([2]; trial 3, rate 600 μg per disk)?
**A.** 100%

**Q.** What about the “Fraction Covered, Day 3 (mean percentage of filter paper disk surface covered by fungus)” value ([2]; trial 3, rate 1000 μg per disk) of the same compound?
**A.** 16%

**Q.** And the “Fraction Covered, Day 4 (mean percentage of filter paper disk surface covered by fungus)” value ([2]; trial 3, rate 1000 μg per disk)?
**A.** 99%

**Q.** And the “Fraction Covered, Day 5 (mean percentage of filter paper disk surface covered by fungus)” value ([2]; trial 3, rate 1000 μg per disk)?
**A.** 100%

**Q.** What about the “Coverage of filter paper versus the DBP or naphthalene treatments” value ([2]; trial 3, three days after treatment, P=0.0001) of the same compound?
**A.** significantly greater

**Q.** And the “Fraction Covered, Day 4 (mean percentage of filter paper disk surface covered by fungus)” value ([3]; trial 1, rate 2 μg per disk)?
**A.** 70%

**Q.** What about the “Fraction Covered, Day 5 (mean percentage of filter paper disk surface covered by fungus)” value ([3]; trial 1, rate 2 μg per disk) of the same compound?
**A.** 85%

**Q.** And the “Fraction covered, Day 6 (mean percentage of filter paper disk surface covered by fungus)” value ([3]; trial 1, rate 2 μg per disk)?
**A.** 92%

**Q.** And the “Fraction Covered, Day 4 (mean percentage of filter paper disk surface covered by fungus)” value ([3]; trial 1, rate 20 μg per disk)?
**A.** 27%

**Q.** And the “Fraction Covered, Day 5 (mean percentage of filter paper disk surface covered by fungus)” value ([3]; trial 1, rate 20 μg per disk)?
**A.** 65%

**Q.** What about the “Fraction covered, Day 6 (mean percentage of filter paper disk surface covered by fungus)” value ([3]; trial 1, rate 20 μg per disk) of the same compound?
**A.** 76%

**Q.** And the “Fraction Covered, Day 4 (mean percentage of filter paper disk surface covered by fungus)” value ([3]; trial 1, rate 200 μg per disk)?
**A.** 28%

**Q.** And the “Fraction Covered, Day 5 (mean percentage of filter paper disk surface covered by fungus)” value ([3]; trial 1, rate 200 μg per disk)?
**A.** 56%

**Q.** What about the “Fraction covered, Day 6 (mean percentage of filter paper disk surface covered by fungus)” value ([3]; trial 1, rate 200 μg per disk) of the same compound?
**A.** 93%

**Q.** And the “Fraction Covered, Day 3 (mean percentage of filter paper disk surface covered by fungus)” value [4, 6]?
**A.** 93%

**Q.** What about the “Fraction Covered, Day 4 (mean percentage of filter paper disk surface covered by fungus)” value [4, 6] of the same compound?
**A.** 94%

**Q.** What about the “Fraction Covered, Day 5 (mean percentage of filter paper disk surface covered by fungus)” value [4, 6] of the same compound?
**A.** 96%

**Q.** What about the “Fraction Covered, Day 3 (mean percentage of filter paper disk surface covered by fungus)” value ([4]; trial 2, rate 2 μg per disk) of the same compound?
**A.** 85%

**Q.** And the “Fraction Covered, Day 4 (mean percentage of filter paper disk surface covered by fungus)” value ([4]; trial 2, rate 2 μg per disk)?
**A.** 90%

**Q.** And the “Fraction Covered, Day 5 (mean percentage of filter paper disk surface covered by fungus)” value ([4]; trial 2, rate 2 μg per disk)?
**A.** 90%

**Q.** And the “Fraction Covered, Day 3 (mean percentage of filter paper disk surface covered by fungus)” value ([4]; trial 2, rate 20 μg per disk)?
**A.** 93%

**Q.** What about the “Fraction Covered, Day 4 (mean percentage of filter paper disk surface covered by fungus)” value ([4]; trial 2, rate 20 μg per disk) of the same compound?
**A.** 95%

**Q.** What about the “Fraction Covered, Day 5 (mean percentage of filter paper disk surface covered by fungus)” value ([4]; trial 2, rate 20 μg per disk) of the same compound?
**A.** 98%

**Q.** And the “Fraction Covered, Day 3 (mean percentage of filter paper disk surface covered by fungus)” value ([4]; trial 2, rate 200 μg per disk)?
**A.** 95%

**Q.** And the “Fraction Covered, Day 4 (mean percentage of filter paper disk surface covered by fungus)” value ([4]; trial 2, rate 200 μg per disk)?
**A.** 99%

**Q.** And the “Fraction Covered, Day 5 (mean percentage of filter paper disk surface covered by fungus)” value ([4]; trial 2, rate 200 μg per disk)?
**A.** 100%
